The record followed here is ChEMBL document CHEMBL1148158, “Antineoplastic Agents. 510. Isolation and structure of dolastatin 19 from the Gulf of California sea hare Dolabella auricularia” (2004).

Assay [1] has as its system KM-20L2. The experiment in a line: Growth inhibition of human KM20L2 cells. The assay is classed as functional.
In assay [2] the test system is MCF7. The experiment in a line: Growth inhibition of human MCF7 cells. The format is functional.

Converted amounts (≈) assume the structure as drawn.

In general, GI50 refers to the concentration at which growth is held to half of that of the control. A higher GI50 goes with less potent growth inhibition. Consider `CO[C@@H]1[C@@H](O)[C@@H](OC)[C@H](O[C@@H]2C[C@]3(O)O[C@H](C[C@H](OC)/C=C(\C)C[C@@H](/C=C/C=C/Br)OC(=O)[C@H]3C)[C@H]2C)O[C@H]1C` [DOLASTATIN 19], for which the GI50 worked out at 0.76 µg/mL (≈ 1.2 µM) in assay [1] and 0.72 µg/mL (≈ 1.14 µM) in assay [2].
